Measurements as given in patent US20260200983A1, “USE OF GALR2 AGONISTS TO TREAT GASTROINTESTINAL AND/OR ENDOCRINE DISORDERS” (priority 2022, published 2026).
Non-standard residues stand in square brackets, D forms with d. Residues, ends and D or L forms follow the SMILES beside them. Primed or numbered codes have the meaning given here. No end group written: not given here. PEG2′ = not defined here

How the values were obtained:
hGALR2 = target: T1, hGALR2 (Homo sapiens, UniProt O43603); test: SRE luciferase activity in mGqi-hGALR2-SRE Luc expressing cell lines; format: cell-based; details: read-out: logEC50 (mean ± SEM) (converted)
T1 construct: expressed in transfected cells
T1 sequence (O43603 1-387): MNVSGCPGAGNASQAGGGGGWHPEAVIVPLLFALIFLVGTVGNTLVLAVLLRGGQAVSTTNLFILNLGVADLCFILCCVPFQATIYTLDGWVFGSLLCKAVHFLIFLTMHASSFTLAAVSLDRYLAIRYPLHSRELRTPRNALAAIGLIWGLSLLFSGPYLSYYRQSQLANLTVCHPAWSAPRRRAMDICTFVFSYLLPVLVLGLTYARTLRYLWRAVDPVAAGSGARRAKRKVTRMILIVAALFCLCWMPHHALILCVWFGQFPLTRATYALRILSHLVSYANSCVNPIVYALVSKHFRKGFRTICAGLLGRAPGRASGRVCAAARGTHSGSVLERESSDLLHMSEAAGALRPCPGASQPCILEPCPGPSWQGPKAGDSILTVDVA
Description: FIG. 11 provides a comparison of the in vitro potency of three different GALR2 agonist peptides with certain amino acid substitutions at the 4th amino acid position. Specifically, the GALR2 agonist peptides were as follows: (1) nWTaNAALYLFGPq-NH2 (D-alanine substitution; triangle), (2) PEG2-NWTeNAALYLFGPq-NH2 (D-glutamic acid; filled circle), and (3) PEG2-NWTrNAALYLFGPq-NH2 (D-arginine; open circle). Potency of the GALR2 agonists was assessed by measuring SRE luciferase activity in mGqi-hGALR2-SRE Luc expressing cell lines treated with the peptides.
In addition to solubility (described above in Example 8), the in vitro potency of the three GALR2 agonist peptides described in Example 7 was next assessed. Specifically, mGqi-hGALR2-SRE Luc expressing cell lines were treated with the different peptides and SRE luciferase activity was measured (as a measure of intracellular activity mediated by the GALR2 agonist peptides).

OIC mice = test: Colonic transit time (latency to glass bead expulsion) in opioid-induced constipation (OIC) mouse model; format: in vivo; details: 10 mg/kg intraperitoneally, single administration at day 7, positive control (FIG. 5)
Description: FIG. 4 provides the overall experimental design in assessing the effects of GALR2 agonists described herein in an opioid-induced constipation (OIC) mouse model. The upward arrows (seven total) represent the daily administration of the GALR2 agonist. The GALR2 agonist that was administered to the relevant groups was pegylated. Control animals received either a vehicle control (negative control) or bisacodyl (positive control). Animals that received a single administration (i.e., at day 7) of naloxone methiodide were also used as a positive control. At 10 minutes post last administration, each of the animals received an administration of morphine (3 mg/kg; subcutaneously). […] Colonic transit time was assessed by measuring the latency to glass bead expulsion by the animals.
FIGS. 9A and 9B show the effect of dosing schedule and administration route on GALR2 agonist-mediated regulation of colonic transit time in OIC mice. […] Colonic transit time was assessed by measuring the latency to glass bead expulsion by the animals. […]
To assess whether the GALR2 agonists described herein could be useful in treating opioid-induced constipation, an OIC mouse model was used. […] Then, a glass bead was rectally inserted, and colonic transit time was assessed by measuring the latency to glass bead expulsion by the animals. […]

[1] = target: T2, human galanin receptor type 2 (GALR2) (human, UniProt O43603 1-387); test: cell-based or functional assay
T2 sequence: T1 sequence (O43603 1-387)

CC(C)C[C@H](NC(=O)[C@H](C)NC(=O)[C@H](C)NC(=O)[C@H](CC(N)=O)NC(=O)[C@@H](C)NC(=O)[C@@H](NC(=O)[C@H](Cc1c[nH]c2ccccc12)NC(=O)[C@H](N)CC(N)=O)[C@@H](C)O)C(=O)N[C@@H](Cc1ccc(O)cc1)C(=O)N[C@@H](CC(C)C)C(=O)N[C@@H](Cc1ccccc1)C(=O)NCC(=O)N1CCC[C@H]1C(=O)N[C@H](CCC(N)=O)C(N)=O [D-Alanine (SEQ ID NO: 87), nWTaNAALYLFGPq-NH2] (HELM PEPTIDE1{[dN].W.T.[dA].N.A.A.L.Y.L.F.G.P.[dQ].[am]}$$$$V2.0)
EC50 (hGALR2): 44.7 nM

C=CC[N+]1(C)CC[C@]23c4c5ccc(O)c4O[C@H]2C(=O)CC[C@@]3(O)[C@H]1C5 (stereo partly drawn) [naloxone methiodide, reference compound]
colonic transit time (OIC mice): decrease in colonic transit time

B1: PEG2-NWTrNAALYLFGPq-NH2 ([PEG-dR4-dQ14]-GALR2 Agonist, SEQ ID NO: 89) (peptide)
peptide: [PEG2′]NWT[dR]NAALYLFGP[dQ]-NH2
EC50 fold change against the D-alanine peptide, SRE luciferase activity [1]: ~3.5 fold
